The values below come from patent US7538106B2, “Application of 2-cyano-10- (2-methyl-3- (methylamino)- propyl) phenothiazine or a pharmaceutically acceptable salt as medicament” (Aventis Pharmaceuticals Inc., priority 2003, dated 2009).

One test addresses D2 (h) (Homo sapiens, UniProt P14416). Nature of the test: Binding to membrane receptors of central neuromediators of human origin: D2. The following applies: D2 (h) receptor binding. The source says:
(§1) The results of this study of binding to these various membrane receptors of central neuromediators of human origin are presented in Table 1.

The target of another test is T1, M2 (h) (Homo sapiens, UniProt P08172).
T1 sequence (P08172 1-466): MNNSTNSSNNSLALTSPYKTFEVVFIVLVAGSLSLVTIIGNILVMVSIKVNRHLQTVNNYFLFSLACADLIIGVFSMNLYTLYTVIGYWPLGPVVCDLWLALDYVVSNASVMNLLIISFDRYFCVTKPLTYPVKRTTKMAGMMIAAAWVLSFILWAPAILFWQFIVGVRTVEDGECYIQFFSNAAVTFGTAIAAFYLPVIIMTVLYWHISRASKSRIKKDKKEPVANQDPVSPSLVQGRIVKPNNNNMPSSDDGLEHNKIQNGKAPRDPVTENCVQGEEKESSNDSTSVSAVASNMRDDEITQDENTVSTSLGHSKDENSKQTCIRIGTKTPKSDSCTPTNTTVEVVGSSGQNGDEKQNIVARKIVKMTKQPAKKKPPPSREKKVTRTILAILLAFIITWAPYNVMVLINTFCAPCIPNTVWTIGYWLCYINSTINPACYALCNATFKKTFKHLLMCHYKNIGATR
Put plainly: Binding to membrane receptors of central neuromediators of human origin: M2. The following applies: M2 (h) receptor binding.
Excerpt: as §1

The target of another test is 5-HT2c (h) (Homo sapiens, UniProt P28335). Put plainly: Binding to membrane receptors of central neuromediators of human origin: 5-HT2c.
The target of the next test is M3 (h) (Homo sapiens, UniProt P20309). Put plainly: Binding to membrane receptors of central neuromediators of human origin: M3. The note with it: M3 (h) receptor binding.
Excerpt: as §1

Another test addresses T2, 5-HT1A (h) (Homo sapiens, UniProt P08908).
T2 sequence (P08908 1-422): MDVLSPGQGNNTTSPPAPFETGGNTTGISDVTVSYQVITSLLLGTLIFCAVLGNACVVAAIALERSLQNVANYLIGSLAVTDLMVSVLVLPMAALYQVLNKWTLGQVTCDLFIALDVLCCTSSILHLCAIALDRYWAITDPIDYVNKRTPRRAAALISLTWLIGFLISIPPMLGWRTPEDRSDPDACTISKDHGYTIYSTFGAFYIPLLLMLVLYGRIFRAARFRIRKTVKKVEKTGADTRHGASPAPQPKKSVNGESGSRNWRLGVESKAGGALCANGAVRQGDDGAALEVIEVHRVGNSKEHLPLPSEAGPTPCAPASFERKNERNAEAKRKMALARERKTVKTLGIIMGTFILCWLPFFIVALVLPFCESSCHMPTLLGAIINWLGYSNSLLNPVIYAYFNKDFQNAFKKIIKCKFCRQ
Put plainly: Binding to membrane receptors of central neuromediators of human origin: 5-HT1A. The following applies: 5-HT1A (h) receptor binding.
Excerpt: as §1

The target in the next test is H1 (h) (Homo sapiens, UniProt P35367). Nature of the test: Binding to membrane receptors of central neuromediators of human origin: H1. The note with it: H1 (h) receptor binding.
Excerpt: as §1

For a further test, the target named is 5-HT2A (h) (Homo sapiens, UniProt P28223). Put plainly: Binding to membrane receptors of central neuromediators of human origin: 5-HT2A. The note with it: 5-HT2A (h) receptor binding.
A further test deals with T3, M1 (h) (Homo sapiens, UniProt P11229).
T3 sequence (P11229 1-460): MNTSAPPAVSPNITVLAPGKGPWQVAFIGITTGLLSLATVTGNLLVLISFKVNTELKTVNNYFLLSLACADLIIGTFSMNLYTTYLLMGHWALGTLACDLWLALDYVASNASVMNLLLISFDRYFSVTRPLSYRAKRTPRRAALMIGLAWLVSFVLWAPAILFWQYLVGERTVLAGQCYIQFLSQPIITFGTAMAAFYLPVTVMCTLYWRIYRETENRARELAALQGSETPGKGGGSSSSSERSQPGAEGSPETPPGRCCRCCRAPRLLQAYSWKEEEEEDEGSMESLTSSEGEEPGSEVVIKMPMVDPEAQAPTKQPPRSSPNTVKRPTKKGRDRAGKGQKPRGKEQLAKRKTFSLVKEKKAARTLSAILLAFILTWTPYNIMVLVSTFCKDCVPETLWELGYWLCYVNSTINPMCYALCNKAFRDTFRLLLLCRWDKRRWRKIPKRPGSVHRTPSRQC
Nature of the test: Binding to membrane receptors of central neuromediators of human origin: M1. The note with it: M1 (h) receptor binding.
Excerpt: as §1

For a further test, the system named is mice. Put plainly: Actimetry test (sedative activity, spontaneous motor activity). The format is in vivo. The note with it: spontaneous motor activity recorded for 10 minutes. The protocol:
The sedative activity of the product was determined with mice according to an actimetry test. The actimeter is a device composed of 6 transparent cages in which the animals are individually placed. Photoelectric cells make it possible to detect movements in the cages (by cutting the beam). The spontaneous motor activity is recorded for 10 minutes. The results are expressed in the mean form and in the form of percentage of activity with respect to the control batch. The results are expressed in Table 2.

5-HT2c (h), sequence (P28335 33-458): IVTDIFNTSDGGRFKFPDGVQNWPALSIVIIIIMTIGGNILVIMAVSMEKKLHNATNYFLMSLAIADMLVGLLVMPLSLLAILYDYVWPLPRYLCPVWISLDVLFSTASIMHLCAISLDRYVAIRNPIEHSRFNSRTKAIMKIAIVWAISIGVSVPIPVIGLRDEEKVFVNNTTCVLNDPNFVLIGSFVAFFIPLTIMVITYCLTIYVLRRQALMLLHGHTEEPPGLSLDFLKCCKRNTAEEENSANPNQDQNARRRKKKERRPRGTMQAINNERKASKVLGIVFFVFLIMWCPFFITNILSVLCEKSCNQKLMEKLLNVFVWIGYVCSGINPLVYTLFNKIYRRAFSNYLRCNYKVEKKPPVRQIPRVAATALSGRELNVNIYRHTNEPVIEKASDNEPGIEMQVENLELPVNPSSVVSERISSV
5-HT2A (h), sequence (P28223 whole entry): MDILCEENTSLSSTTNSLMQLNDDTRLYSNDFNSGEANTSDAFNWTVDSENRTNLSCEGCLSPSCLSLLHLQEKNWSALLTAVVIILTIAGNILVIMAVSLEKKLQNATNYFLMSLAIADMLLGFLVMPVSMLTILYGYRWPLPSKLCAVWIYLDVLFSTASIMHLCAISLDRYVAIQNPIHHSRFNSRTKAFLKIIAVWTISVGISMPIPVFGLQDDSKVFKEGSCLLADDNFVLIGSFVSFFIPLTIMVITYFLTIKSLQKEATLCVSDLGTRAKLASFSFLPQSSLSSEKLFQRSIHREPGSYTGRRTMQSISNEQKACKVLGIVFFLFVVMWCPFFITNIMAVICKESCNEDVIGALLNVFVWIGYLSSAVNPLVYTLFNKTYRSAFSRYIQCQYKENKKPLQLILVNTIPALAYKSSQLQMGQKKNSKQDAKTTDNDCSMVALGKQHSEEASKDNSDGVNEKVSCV
H1 (h), sequence (P35367 whole entry): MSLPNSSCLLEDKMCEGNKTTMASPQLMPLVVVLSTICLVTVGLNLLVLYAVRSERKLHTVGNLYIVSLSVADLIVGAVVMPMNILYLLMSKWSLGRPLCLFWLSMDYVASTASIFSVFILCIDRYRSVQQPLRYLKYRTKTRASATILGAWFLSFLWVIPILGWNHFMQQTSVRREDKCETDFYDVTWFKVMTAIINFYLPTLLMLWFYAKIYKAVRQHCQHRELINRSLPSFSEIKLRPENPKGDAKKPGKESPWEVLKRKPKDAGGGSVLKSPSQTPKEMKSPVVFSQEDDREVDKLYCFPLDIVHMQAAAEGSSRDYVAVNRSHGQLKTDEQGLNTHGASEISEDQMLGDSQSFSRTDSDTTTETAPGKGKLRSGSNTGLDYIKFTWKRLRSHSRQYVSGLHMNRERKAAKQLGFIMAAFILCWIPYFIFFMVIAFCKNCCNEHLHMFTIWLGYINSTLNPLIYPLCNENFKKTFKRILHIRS
M3 (h), sequence (P20309 whole entry): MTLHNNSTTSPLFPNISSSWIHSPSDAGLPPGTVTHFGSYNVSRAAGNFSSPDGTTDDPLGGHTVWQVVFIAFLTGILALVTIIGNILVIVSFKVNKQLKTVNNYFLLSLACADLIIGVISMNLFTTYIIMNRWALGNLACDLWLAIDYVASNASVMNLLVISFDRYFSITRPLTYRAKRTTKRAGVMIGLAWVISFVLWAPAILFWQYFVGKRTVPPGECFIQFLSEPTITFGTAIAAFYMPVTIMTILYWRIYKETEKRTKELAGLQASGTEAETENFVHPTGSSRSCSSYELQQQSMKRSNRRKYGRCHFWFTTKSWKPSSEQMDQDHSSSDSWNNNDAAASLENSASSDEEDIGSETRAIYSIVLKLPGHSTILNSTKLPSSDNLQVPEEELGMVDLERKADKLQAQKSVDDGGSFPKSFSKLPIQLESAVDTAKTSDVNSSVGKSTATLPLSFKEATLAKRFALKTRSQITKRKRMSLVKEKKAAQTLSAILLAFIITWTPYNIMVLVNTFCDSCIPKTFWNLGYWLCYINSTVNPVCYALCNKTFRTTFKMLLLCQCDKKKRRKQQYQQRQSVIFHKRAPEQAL
D2 (h), sequence (P14416 whole entry): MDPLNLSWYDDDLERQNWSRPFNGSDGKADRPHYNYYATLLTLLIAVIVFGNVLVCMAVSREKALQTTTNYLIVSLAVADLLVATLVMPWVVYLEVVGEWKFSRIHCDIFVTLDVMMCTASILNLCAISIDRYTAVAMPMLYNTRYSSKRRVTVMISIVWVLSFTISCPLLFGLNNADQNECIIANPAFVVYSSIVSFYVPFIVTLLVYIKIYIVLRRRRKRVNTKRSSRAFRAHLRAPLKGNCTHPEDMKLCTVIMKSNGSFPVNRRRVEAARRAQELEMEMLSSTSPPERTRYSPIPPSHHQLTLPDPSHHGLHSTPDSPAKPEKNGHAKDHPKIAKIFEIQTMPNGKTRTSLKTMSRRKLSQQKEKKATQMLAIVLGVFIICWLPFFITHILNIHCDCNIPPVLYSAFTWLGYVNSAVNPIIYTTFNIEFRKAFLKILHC

As usually defined, the IC50 is the concentration that inhibits the measured activity by half. The low end stands for greater potency, the high end for weaker potency. As usually defined, the Ki is a dissociation constant, usually derived from enzyme kinetics or from competition with a known ligand. Lower therefore signals tighter binding. Consider `CNCC(C)CN1c2ccccc2Sc2ccc(C#N)cc21` (stereo not drawn) [2-cyano-10-(2-methyl-3-(methylamino)propyl)phenothiazine], for which the IC50 on D2 (h) is 31 nM; at M2 (h), 368 nM; on 5-HT2c (h) (5-HT2c (h) receptor binding), 23 nM; at M3 (h), 5490 nM; on 5-HT1A (h), 460 nM; at H1 (h), 22 nM. Also, the figures for the IC50 on 5-HT2A (h) and at M1 (h) were 9 nM and 21 nM, respectively. The Ki at D2 (h) worked out at 12 nM; at M2 (h), 251 nM; at 5-HT2c (h) (5-HT2c (h) receptor binding) it was 8.5 nM; on M3 (h), 3920 nM; on 5-HT1A (h), 184 nM; at H1 (h), 9.3 nM. The results for the Ki at 5-HT2A (h) and at M1 (h) were 1.5 nM and 17 nM, respectively. In addition, the “affinity for 5-HT2c receptors” value at 5-HT2c (h) (in words) is listed as “high affinity”. Moreover, the “% of activity/control” value in the test on mice (dose 0.75 mg/kg) stood at 61%; in the test with mice (dose 1 mg/kg), 63%; in the test with mice (dose 2 mg/kg) it was 26%; in the test on mice (dose 4 mg/kg) it was 9%.
